Strand notation (5' to 3'): a small letter for the sugar, then the base; units joined by * are phosphorothioate-linked, units joined directly phosphodiester-linked; [ ] holds rarer units or linkages, { } end groups; capitals alone tell only the bases. e = 2'-O-(2-methoxyethyl) (MOE); [5mC] = 5-methylcytosine; d = 2'-deoxy (DNA)
test system: human Factor 7 mRNA; assay: Antisense inhibition of human Factor 7 mRNA in HepB3 cells, 50 nM antisense oligonucleotide, lipofectin; format: cell-based; conditions: Table 1, 50 nM, lipofectin, approximately 24 hours, relative to untreated control cells
Summary of the method: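 4,000 cells/well; ~24 h exposure; RNA isolated; probe set RTS 2927; normalised to RIBOGREEN® total RNA; % inhibition vs untreated.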

Substance | % Inhibition
407961 (antisense eA*eA*eG*eT*eA*dG*dA*dT*dG*dA*dT*dG*d[5mC]*d[5mC]*dT*eG*eA*eG*eT*eG) [compound 407961] | 34%
407614 (antisense eT*eG*e[5mC]*eA*eG*dT*dA*d[5mC]*dT*dG*d[5mC]*dT*d[5mC]*dA*d[5mC]*eA*eG*e[5mC]*e[5mC]*eG) [compound 407614] | 78%
407954 (antisense e[5mC]*eA*eG*eG*eG*dA*dG*dA*dG*dA*dA*d[5mC]*dA*dT*d[5mC]*e[5mC]*eA*eA*eT*eT) [compound 407954] | 39%
407646 (antisense eG*eG*eT*eG*eA*dT*dG*d[5mC]*dT*dT*d[5mC]*dT*dG*dA*dA*eT*eT*eG*eT*e[5mC]) [compound 407646] | 81%
407664 (antisense e[5mC]*eA*eG*eG*eG*d[5mC]*dG*dA*dG*dG*d[5mC]*dA*dA*d[5mC]*d[5mC]*e[5mC]*e[5mC]*eG*eT*eG) [compound 407664] | 70%
407636 (antisense eG*e[5mC]*eA*eG*e[5mC]*d[5mC]*d[5mC]*dT*dG*dG*d[5mC]*d[5mC]*d[5mC]*d[5mC]*dA*eG*e[5mC]*eT*eG*eA) [compound 407636] | 75%
407952 (antisense eG*eG*eA*eT*e[5mC]*d[5mC]*dT*dG*dG*dG*dA*dG*d[5mC]*dT*dA*e[5mC]*eA*eG*e[5mC]*e[5mC]) [compound 407952] | 41%
407887 (antisense e[5mC]*e[5mC]*eA*eG*eG*d[5mC]*dA*dG*d[5mC]*d[5mC]*d[5mC]*dT*dG*dA*dA*eG*e[5mC]*e[5mC]*e[5mC]*eA) [compound 407887] | 78%
407649 (antisense eG*eA*eG*eG*eG*dT*dT*d[5mC]*dA*dT*dT*dT*d[5mC]*dA*dG*eT*eG*eA*eT*eG) [compound 407649] | 24%

same assay, conditions: Table 6, 50 nM, lipofectin, approximately 24 hours

Substance | % Inhibition
422271 (antisense e[5mC]*eT*dG*dA*dG*d[5mC]*dG*d[5mC]*dG*dG*dA*dA*dG*dA*dA*eG*eG*eG*eA*e[5mC]) [compound 422271] | 32%
422270 (antisense eT*eG*dA*dG*d[5mC]*dG*d[5mC]*dG*dG*dA*dA*dG*dA*dA*dG*eG*eG*eA*e[5mC]*eG) [compound 422270] | 15%
422267 (antisense eG*e[5mC]*dG*d[5mC]*dG*dG*dA*dA*dG*dA*dA*dG*dG*dG*dA*e[5mC]*eG*eG*eA*eA) [compound 422267] | 38%
422124 (antisense eT*eG*eA*eG*e[5mC]*dG*d[5mC]*dG*dG*dA*dA*dG*dA*dA*dG*eG*eG*eA*e[5mC]*eG) [compound 422124] | 0%
422119 (antisense eG*e[5mC]*eG*eG*eA*dA*dG*dA*dA*dG*dG*dG*dA*d[5mC]*dG*eG*eA*eA*eG*eG) [compound 422119] | 39%

same assay, conditions: Table 13 (microwalk), 50 nM, lipofectin, approximately 24 hours

Substance | % Inhibition
422085 (antisense eG*e[5mC]*eA*eT*eG*dG*dT*dG*dA*dT*dG*d[5mC]*dT*dT*d[5mC]*eT*eG*eA*eA*eT) [compound 422085] | 70%

same assay, conditions: gapmers targeted to nucleobases 4868 to 4899 of SEQ ID NO: 1, Table 8

Substance | % Inhibition of human Factor 7 mRNA levels
422302 (antisense eA*eG*dG*dA*dG*d[5mC]*d[5mC]*d[5mC]*dG*dA*dG*dT*dT*d[5mC]*dT*eG*e[5mC]*eA*eG*eG) [compound 422302] | 67%
422222 (antisense eA*eG*e[5mC]*d[5mC]*d[5mC]*dG*dA*dG*dT*dT*d[5mC]*dT*dG*d[5mC]*dA*dG*dG*eA*eG*e[5mC]) [compound 422222] | 55%
422220 (antisense e[5mC]*e[5mC]*e[5mC]*dG*dA*dG*dT*dT*d[5mC]*dT*dG*d[5mC]*dA*dG*dG*dA*dG*e[5mC]*eG*eG) [compound 422220] | 59%
422221 (antisense eG*e[5mC]*e[5mC]*d[5mC]*dG*dA*dG*dT*dT*d[5mC]*dT*dG*d[5mC]*dA*dG*dG*dA*eG*e[5mC]*eG) [compound 422221] | 59%
422218 (antisense e[5mC]*eG*eA*dG*dT*dT*d[5mC]*dT*dG*d[5mC]*dA*dG*dG*dA*dG*d[5mC]*dG*eG*e[5mC]*e[5mC]) [compound 422218] | 70%
422223 (antisense eG*eA*eG*d[5mC]*d[5mC]*d[5mC]*dG*dA*dG*dT*dT*d[5mC]*dT*dG*d[5mC]*dA*dG*eG*eA*eG) [compound 422223] | 48%
422141 (antisense eA*eG*eT*eT*e[5mC]*dT*dG*d[5mC]*dA*dG*dG*dA*dG*d[5mC]*dG*eG*e[5mC]*e[5mC]*eT*eA) [compound 422141] | 64%

same assay, conditions: lipofectin, 50 nM antisense oligonucleotide, approximately 24 hours, Factor 7 mRNA by real-time RT-PCR (RTS 2927), relative to untreated control

Substance | % Inhibition
416481 (antisense eA*eG*eA*eT*eG*dA*dT*dA*dA*dT*dG*dG*dA*dT*dA*eA*eG*eA*eA*e[5mC]) [compound 416481] | 15%
416476 (antisense eG*e[5mC]*eA*eG*eG*dT*dG*dG*dG*d[5mC]*dT*dT*dG*dG*d[5mC]*eT*eG*eA*eA*eG) [compound 416476] | 58%
416517 (antisense eG*eG*eG*eT*eG*d[5mC]*dA*dG*dT*dA*dG*d[5mC]*dA*dG*dA*eT*eG*e[5mC]*eA*eA) [compound 416517] | 23%
416567 (antisense eT*eG*eG*eT*eG*dG*d[5mC]*dA*d[5mC]*d[5mC]*dA*dG*dA*dT*dG*eT*e[5mC]*eT*eG*eA) [compound 416567] | 2%
416550 (antisense eT*eG*eG*e[5mC]*eT*dG*dG*d[5mC]*dT*dG*dA*dG*dG*dA*dG*eA*e[5mC]*eA*eA*eT) [compound 416550] | 55%
416500 (antisense e[5mC]*eT*eG*eA*eA*d[5mC]*dA*d[5mC]*d[5mC]*d[5mC]*d[5mC]*dA*dG*d[5mC]*dT*eG*eA*eG*eA*eG) [compound 416500] | 1%
416561 (antisense eG*eG*eT*eG*eT*dG*dT*dT*d[5mC]*d[5mC]*d[5mC]*dA*dT*dA*dA*eA*eA*e[5mC]*eT*eT) [compound 416561] | 16%
416432 (antisense eA*eG*e[5mC]*eA*e[5mC]*dT*dG*d[5mC]*dT*d[5mC]*d[5mC]*dT*d[5mC]*d[5mC]*dT*eT*eG*e[5mC]*eA*e[5mC]) [compound 416432] | 44%
416542 (antisense e[5mC]*eA*eG*eG*eG*dT*dG*d[5mC]*d[5mC]*d[5mC]*dA*dT*d[5mC]*d[5mC]*dT*eA*eG*eT*e[5mC]*eA) [compound 416542] | 56%
416514 (antisense eG*eT*eA*eT*eT*dT*dT*d[5mC]*dT*dG*dA*dT*dG*dT*dG*eA*eA*eA*eA*e[5mC]) [compound 416514] | 8%
416474 (antisense eT*eG*eT*e[5mC]*eT*dG*d[5mC]*d[5mC]*dT*d[5mC]*d[5mC]*dA*dG*dG*dA*e[5mC]*eA*eA*e[5mC]*e[5mC]) [compound 416474] | 40%
416562 (antisense eA*eA*eA*eG*e[5mC]*dA*dG*dA*dG*d[5mC]*d[5mC]*dA*dG*d[5mC]*dT*e[5mC]*eT*eG*eA*e[5mC]) [compound 416562] | 12%
416468 (antisense eT*eG*eG*eG*eA*dG*dA*d[5mC]*d[5mC]*d[5mC]*dT*dG*dG*dT*dG*eT*eA*e[5mC]*eA*e[5mC]) [compound 416468] | 46%

same assay, conditions: oligonucleotides targeted to nucleobases 11830 to 11869 of SEQ ID NO: 1 (Table 9)

Substance | % Inhibition (human Factor 7 mRNA levels)
422091 (antisense eT*eG*eG*eT*e[5mC]*dA*dG*dG*dG*d[5mC]*dT*dG*dG*dT*dT*eT*eT*eG*eG*eA) [compound 422091] | 42%
422237 (antisense e[5mC]*eA*dA*dT*dG*dG*dT*d[5mC]*dA*dG*dG*dG*d[5mC]*dT*dG*eG*eT*eT*eT*eT) [compound 422237] | 50%
422107 (antisense eG*e[5mC]*eT*eG*eG*d[5mC]*dT*dG*dA*dG*dG*dA*dG*dA*d[5mC]*eA*eA*eT*eG*eG) [compound 422107] | 36%
422232 (antisense eG*eT*d[5mC]*dA*dG*dG*dG*d[5mC]*dT*dG*dG*dT*dT*dT*dT*eG*eG*eA*eG*eG) [compound 422232] | 41%
422247 (antisense eG*e[5mC]*dT*dG*dA*dG*dG*dA*dG*dA*d[5mC]*dA*dA*dT*dG*eG*eT*e[5mC]*eA*eG) [compound 422247] | 36%
422158 (antisense eA*eT*eG*dG*dT*d[5mC]*dA*dG*dG*dG*d[5mC]*dT*dG*dG*dT*dT*dT*eT*eG*eG) [compound 422158] | 49%

same assay, conditions: oligonucleotides targeted to nucleobases 13760 to 13789 of SEQ ID NO: 1 (Table 10)

Substance | % Inhibition (human Factor 7 mRNA levels)
422110 (antisense eA*e[5mC]*e[5mC]*e[5mC]*eG*d[5mC]*d[5mC]*dG*dG*d[5mC]*dT*d[5mC]*dT*dG*d[5mC]*eT*e[5mC]*eA*eT*e[5mC]) [compound 422110] | 53%
422257 (antisense e[5mC]*e[5mC]*dA*d[5mC]*d[5mC]*d[5mC]*dG*d[5mC]*d[5mC]*dG*dG*d[5mC]*dT*d[5mC]*dT*eG*e[5mC]*eT*e[5mC]*eA) [compound 422257] | 65%

same assay, conditions: oligonucleotides targeted to nucleobases 15098 to 15122 of SEQ ID NO: 1 (Table 12)

Substance | % Inhibition (human Factor 7 mRNA levels)
422137 (antisense eA*e[5mC]*eA*eG*e[5mC]*dA*d[5mC]*dA*d[5mC]*dA*dT*dG*dG*dA*dG*eT*e[5mC]*eA*eG*e[5mC]) [compound 422137] | 45%
422284 (antisense e[5mC]*eA*d[5mC]*dA*d[5mC]*dA*dT*dG*dG*dA*dG*dT*d[5mC]*dA*dG*e[5mC]*eA*eT*e[5mC]*eG) [compound 422284] | 43%
422212 (antisense eG*eA*e[5mC]*dA*dG*d[5mC]*dA*d[5mC]*dA*d[5mC]*dA*dT*dG*dG*dA*dG*dT*e[5mC]*eA*eG) [compound 422212] | 30%
